# In patent US5298621A, “Oligopeptide derivatives of ipoxantine endowed with immunomodulating activity and pharmaceutical compositions containing same” (Sigma-Tau Industrie Farmaceutiche Riunite S.p.A., priority 1990, dated 1994):
# Key:
# [1] = tested on: plaque-forming cells (PFC) in the spleen of SRBC-immunized mice; assay: Primary antibody production (Jerne test) in the spleen of SRBC immunized mice; format: in vivo
# Procedure: Test 1 Assessment of the effect of ST 657 and ST 789 on the primary antibody production (Jerne test) in the spleen of SRBC (Sheep Red Blood Cells) immunized mice.
# Male B6 D2 F1 mice (Charles River, Italy) aged 7-8 weeks (6 animals per group) were used. In this test, the animals were examined separately.
# The compounds were administered i.p. at the doses of 2.5 and 25 mg/kg (single administration) the same day of immunization (Table 1) or, at the dose of 2.5 mg/kg/day (repeated administrations), at days -2, 0 and +2 (immunization at day 0) (Table 2).
# The experimental procedure has been described by Jerne, N.K. et al, Transpl. Rev., 18, 130 (1974). In particular, the animals were immunized by i.p. administrations of a SRBC suspension (1×10^7 cells/mouse in 0.2 mL of sterile saline).
# 5 days following treatment, the spleens were aseptically excised from the sacrificed animals.
# The concentration of the splenocytes obtained from the spleen was adjusted to 1×10^7 cells/mL. Aliquots of 0.1 mL of suspension were mixed with warm agar-Hank's (2 mL) and 10% SRBC in PBS buffer (0.2 mL), seeded in Petri dishes and incubated at 37° C. for 60 minutes (samples tested in triplicates). Following addition of complement (2 mL of guinea pig serum diluted 1:10 in Tris buffer), Petri dishes were further incubated at 37° C. for 30 minutes. In the presence of complement, the antibody-secreting cells of splenocytes extracted from the spleens of SRBC-immunized mice cause a hemolytic reaction. This reaction brings about the formation of lytic plaques in the samples.
# The results obtained are expressed as follows: […]
# (a) number of plaque-forming cells (PFC) out of 10^6 cells;
# (b) number of plaque-forming cells in the whole spleen.
# The data obtained are processed with Dunnett's test (Biostatistics in Pharmacology, vol. II, Pergamon Press) to assess the statistical significance of differences recorded between groups of treated and control animals.
# [2] = tested on: K. pneumoniae; assay: Protective effect in immunodepressed mice experimentally infected with K. pneumoniae; format: in vivo; details: for % Mortality: cyclophosphamide immunodepressed
# Source text: Test 2 Assessment of the protective effect induced by ST 657, ST 733, ST 754 and ST 789 on immunodepressed mice experimentally infected.
# Male CD1 mice (Charles River, Italy) of different ages were used: mice aged 6 and 12 weeks infected with Klebsiella and mice aged 7 weeks infected with Salmonella (10 mice per group).
# Systemic infection in mice was induced via i.p. inoculum of either a pathogenic strain of Klebsiella (K. pneumoniae) or a pathogenic strain of Salmonella (S. typhimurium), which were able to provoke death of the animals within 5 and 20 days, respectively, following the challenge.
# Infective doses prepared from overnight broth cultures corresponding to 1.5×10^5 and 3.5×10^5 live cells of K. pneumoniae, and 1×10^3 live cells of S. typhimurium were suspended in 0.2 mL of 5% gastric mucine and then injected.
# The immunosuppressor (cyclophosphamide) was administered i.p. in 0.2 mL of sterile saline, 100 mg/kg, 5 days before the infective challenge.
# The compounds were administered i.p., 0.25 and 25 mg/kg/day, from day -5 to day -1 (challenge at day 0).
# The results obtained are expressed as % mortality and statistically processed with the Fisher's exact test (Biostatistics in Pharmacology, vol. II, Pergamon Press).
# [3] = tested on: rat granulocytes; assay: "In vitro" chemotactic activity of rat granulocytes (modified Boyden chamber); format: cell-based; details: for "in vitro" chemotaxis (μ ± S.E.): 10 mcg/mL, granulocytes of untreated rats; for chemotactic activity of rat granulocytes versus the control (in words): in vitro and in vitro-ex vivo
# Procedure: (§1) Test 3 Assessment of the "in vitro" and "in vitro-ex vivo" effect of ST 657 and ST 789 on the chemotactic activity of rat granulocytes.
# (§2) Male Fisher-344 rats aged about 3 months were used (6-8 animals for each experimental group).
# (§3) The compounds were tested "in vitro", 10 mcg/mL, and "in vitro-ex vivo" following administration of 25 mg/kg/day from day -5 to day -1 (taking of blood sample at day 0).
# (§4) The experimental procedure is described by Cates, L. K. et al (1987), Modified Boyden chamber method of measuring polymorphonuclear leukocyte chemotaxis, Leukocyte Chemotaxis, Raven Press, N.Y. 67.
# (§5) Blood samples were collected from animals sacrificed by decapitation. Following passage through heparinized gauze, blood was diluted (1:1) with dextran (1.5% in saline) and allowed to sediment for 90 minutes.
# The concentration of the granulocytes, collected from blood via known techniques, was adjusted to 2×10^6 cells/mL in Hank's medium. They were then seeded on 3 μMillipore filters which were placed in migration chambers.
# These chambers were prepared using Hank's medium to evaluate the spontaneous migration, and casein (2 mL of solution, at the concentration 5 mg/mL) to evaluate the induced migration.
# In performing the "in vitro" test, granulocytes of untreated animals were used, to which the compounds had been added before seeding thereof on the Millipore filters preparation of migration chambers.
# Following incubation of the samples at 37° C. and 5% CO2 for 60 minutes, the filters were stained and mounted on microscope slides.
# Microscopic examination of samples versus control allows the distance (in μm) run by the two most forward granulocytes in the framed field to be determined. Granulocyte migration is determined by calculating the mean value of 10 readings performed as a whole on two filters per sample.
# The results obtained were statistically processed with Student's "t" test (Biostatistics in Pharmacology, loc, cit.).
# [4] = tested on: rat granulocytes; assay: "In vitro-ex vivo" chemotactic activity of rat granulocytes; details: 25 mg/kg/day i.p. from day -5 to day -1, blood sample at day 0
# Procedure: as §1, §2, §3, §4, §5
# The concentration of the granulocytes, collected from blood via known techniques, was adjusted to 2×10^6 cells/mL in Hank's medium. They were then seeded on 3 μMillipore filters which were placed in migration chambers. […]
# Microscopic examination of samples versus control allows the distance (in μm) run by the two most forward granulocytes in the framed field to be determined. Granulocyte migration is determined by calculating the mean value of 10 readings performed as a whole on two filters per sample. […]
# [5] = tested on: Sarcoma S 180 cells; assay: Protective effect in S 180 Sarcoma-bearing mice; format: in vivo; details: for Dead/total / MST (mean survival time calculated by the median and the first interquartile range): 0.25 mg/kg i.p. from day +1 to day +10; for Weight control (x ± S.E.): 0.25 mg/kg/day i.p. day +1 to +10, in g (unit assumed); for number of surviving animals at the indicated day / animals survived (footnote, end of observation): group of 9, 0.25 mg/kg/day; for animals survived (footnote, end of observation): after day +26
# Procedure: Test 4 Assessement of the protective effect of ST 657 and ST 789 in tumor-bearing mice.
# Male DBA/2 mice and male CD1 mice (Charles River), both aged 6 weeks, were used.
# CD1 mice were inoculated i.p. with 1×10^3 Sarcoma S 180 cells (ATCC, loc. cit.) in 0.1 mL of Hank's medium.
# The compounds were adminstered i.p. in sterile saline (0.25 mg/kg/day) from day +1 to day +10 (tumor transplantation at day 0).
# Also the body weight of the animals was monitored, from day 0 to day +16 for the L 1210 leukemia-bearing mice, and from day 0 to day +21 for the S 180 sarcoma-bearing mice.
# Monitoring of body weight was conducted in order to evaluate the evolution of the neoplastic process. Compounds activity was assessed as Mean Survival Time (MST).
# [6] = 25 mg/kg i.p., single administration on the day of immunization
# [7] = 2,5 mg/kg i.p., single administration on the day of immunization
# [8] = 2,5 mg/kg/day i.p. at days -2, 0, +2 (immunization at day 0)
# [9] = K. pneumoniae 1.5 × 10^5 cells, animals aged 6 weeks, 0.25 mg/kg/day i.p. day -5 to -1
# [10] = K. pneumoniae 1.5 × 10^5 cells, animals aged 6 weeks, 25 mg/kg/day i.p. day -5 to -1
# [11] = K. pneumoniae 3.5 × 10^5 cells, animals aged 12 weeks, 0.25 mg/kg/day i.p. day -5 to -1
# [12] = K. pneumoniae 3.5 × 10^5 cells, animals aged 12 weeks, 25 mg/kg/day i.p. day -5 to -1
Compound,"PFC/10^6 cells (x and ranges of variation) [1, 6]","PFC/spleen (x and ranges of variation) [1, 6]","% Mortality [2, 9] [%]","% Mortality [2, 10] [%]","% Mortality [2, 11] [%]","% Mortality [2, 12] [%]","""in vitro"" chemotaxis (μ ± S.E.) [3] [μ]",chemotactic activity of rat granulocytes versus the control (in words) [3],"""in vitro-ex vivo"" chemotaxis (μ ± S.E.) [4] [μ]",Dead/total [5],MST (mean survival time calculated by the median and the first interquartile range) [5],Weight control (x ± S.E.) ([5]; Day 0),Weight control (x ± S.E.) ([5]; Day 2),Weight control (x ± S.E.) ([5]; Day 4),Weight control (x ± S.E.) ([5]; Day 7),Weight control (x ± S.E.) ([5]; Day 9),Weight control (x ± S.E.) ([5]; Day 11),Weight control (x ± S.E.) ([5]; Day 14),Weight control (x ± S.E.) ([5]; Day 16),Weight control (x ± S.E.) ([5]; Day 21),further results
N-5-(ipoxantin-9-yl) pentyloxycarbonyl glycyl L-aspartate disodium salt [ST 657],422 (403-443) PFC/10^6 cells,61276 (54294-63323) PFC/spleen,50,20,33,60,54.8 ± 3.05,effective in enhancing the chemotactic activity,89.3 ± 1.95,5/9,26.0 (20.5-≥47.0),22.2 ± 0.3,22.0 ± 0.6,23.9 ± 0.4,26.1 ± 0.4,27.3 ± 0.5,28.6 ± 0.6,31.2 ± 1.0,31.4 ± 1.1,32.9 ± 1.0,"PFC/10^6 cells (x and ranges of variation) [1, 7]: 393 (368-420) PFC/10^6 cells; PFC/spleen (x and ranges of variation) [1, 7]: 62356 (59939-64871) PFC/spleen; PFC/10^6 cells (x and ranges of variation) [1, 8]: 416 (372-465) PFC/10^6 cells; PFC/spleen (x and ranges of variation) [1, 8]: 67195 (59781-75529) PFC/spleen; increase of PFC number with respect to control (in words) ([1]; comparison with ST 789): more active than ST 789; protective effect in immunodepressed infected mice (in words) ([2]; comparison with ST 789, K. pneumoniae and S. typhimurium tables): protective effect more potent than ST 789; number of surviving animals at the indicated day ([5]; Day 21): 6; animals survived (footnote, end of observation) [5]: 4; MST / protection in tumor-bearing mice (in words) ([5]; comparison with ST 789, S 180 and L 1210 tables): higher MST and/or a better protection than ST 789"
"N=C(N)NCCC[C@H](NC(=O)OCCCCCn1cnc2c(=O)[nH]cnc21)C(=O)O [ST 789, N-5-(ipoxantin-9-yl) pentyloxycarbonylarginine, reference compound]",339 (318-360) PFC/10^6 cells,58137 (54505-62010) PFC/spleen,50,40,50,60,38.8 ± 4.47,totally inactive,79.8 ± 1.53,8/9,22.0 (20.5-≥25.5),21.8 ± 0.5,22.4 ± 0.5,24.3 ± 0.6,25.8 ± 0.7,26.9 ± 0.8,29.2 ± 1.2,33.1 ± 2.0,34.0 ± 2.0,32.8 ± 2.2,"number of surviving animals at the indicated day ([5]; Day 21): 5; animals survived (footnote, end of observation) [5]: One"
